Experimental data reported in patent publication US8945594B2, “Vinylic mask with peel-off effect for topical use containing high concentrations of retinoic acid” (Laboratori Farmaceutici Krymi S.p.A., priority 2010, dated 2015).

Key:
[1] = Ex vivo determination of skin-accumulated amount of tretinoin contained in the polyvinylic mask; format: in vitro ADME, human; details: polyvinylic mask 2.5% Trans-Retinoic acid Lot P10044, n = 3, average ± s.d.
Procedure: Assessing the Absence of Skin Permeation of Retinoic Acid During the Application Period by Ex Vivo Determination of Skin-Accumulated Amount of the Tretinoin Contained in the Polyvinylic Mask
An ex vivo study of the skin-accumulated amount of retinoic acid contained in the polyvinylic mask was conducted at the Department of Pharmaceutical Sciences of the University of Milan. The aim of the work was the assessment of the barrier effect by polyvinyl alcohol toward the percutaneous absorption of Trans-Retinoic acid under standard conditions of use of the mask. A sample of polyvinylic mask containing 2.5% Trans-Retinoic acid (Lot n° P10044) was subjected to the test. The membrane was prepared by using skin of human origin, which is the most appropriate for foreseeing in vivo absorption. As it is known that the skin barrier against permeation of exogenous substances by passive diffusion mainly consists of the corneal layer, absorption was assessed by using as membrane the […] (SCE) obtained by mechanical separation of the derm from the skin.
The difference in the amounts of tretinoin accumulated in the membranes over the two exposure times, reported in the following table 1, is not significant; therefore, it is evident how the barrier formed by polyvinyl alcohol interferes, by inhibiting percutaneous absorption of Trans-Retinoic acid and therefore its undesired systemic effects, which instead are present in products lacking said barrier and containing it.

[2] = cited from earlier work

SMILES: CC1=C(/C=C/C(C)=C/C=C/C(C)=C/C(=O)O)C(C)(C)CCC1 [Tretinoin, retinoic acid]
- Amount of SCE-accumulated tretinoin ([1]; exposure time 30 min): 1.32 ± 1.01 μg/cm^2
- Amount of SCE-accumulated tretinoin, % w/w with respect to the amount applied ([1]; exposure time 30 min): 1.15 ± 0.84 % w/w
- Amount of SCE-accumulated tretinoin ([1]; exposure time 60 min): 1.63 ± 0.23 μg/cm^2
- Amount of SCE-accumulated tretinoin, % w/w with respect to the amount applied ([1]; exposure time 60 min): 1.38 ± 0.12 % w/w
- solubility in dichloromethane [2]: soluble in dichloromethane
- solubility in ethanol [2]: scarcely soluble in ethanol
- solubility in ether [2]: moderately soluble in ether
- solubility in water [2]: practically insoluble in water
